Data published in patent publication US20170298051A1, “ACTIVATOR OF ADIPONECTIN RECEPTOR” (THE UNIVERSITY OF TOKYO, priority 2013, published 2017).

Tests used:
AdipoR1 [1] = biological target: T1, AdipoR1 (Homo sapiens, UniProt Q96A54); experiment: Measurement of AMPK phosphorylation ability (Assay 2), HEK 293T cells with unrelated or AdipoR1 siRNA; assay type: cell-based; parameters: HEK 293T cells (ATCC; CRL-3216, medium; host or cells: HEK 293T
T1 sequence (Q96A54 1-375): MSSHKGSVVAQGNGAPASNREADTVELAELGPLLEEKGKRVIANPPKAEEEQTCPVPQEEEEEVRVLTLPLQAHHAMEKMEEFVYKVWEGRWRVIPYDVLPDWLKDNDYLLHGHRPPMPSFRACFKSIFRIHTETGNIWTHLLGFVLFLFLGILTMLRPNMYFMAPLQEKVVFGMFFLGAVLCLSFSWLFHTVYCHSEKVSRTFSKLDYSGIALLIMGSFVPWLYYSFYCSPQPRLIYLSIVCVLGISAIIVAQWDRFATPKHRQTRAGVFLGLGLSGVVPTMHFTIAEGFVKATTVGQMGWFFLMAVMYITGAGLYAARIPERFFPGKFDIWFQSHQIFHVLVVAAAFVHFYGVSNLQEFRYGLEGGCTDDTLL
Procedure: HEK 293T cells (medium; DMEM, 10% FBS) were cultured in a 24-well plate until they reached 60% confluency (37° C., 5% CO2).
First, 1 μL of Lipofectamine RNAiMAX and 50 μL of OPTI-MEM were mixed, and then 5 μM siRNA (sense siRNA sequence: […]tt (SEQ ID NO: 1)) and 50 μL of OPTI-MEM were mixed and the resultants were left to stand at room temperature for 5 minutes. And then, the 1 μL Lipofectamine RNAiMAX/50 μL OPTI-MEM and the 5 μM siRNA/50 μL OPTI-MEM were mixed, and the resultant was left to stand at room temperature for 10 minutes, which was added to the cells.
After 5 minutes, the medium (DMEM, 10% FBS) was replaced, and after starvation on the next day, a test compound listed in Tables 10 and 11 was added thereto. After 10 minutes, the medium was discarded and the plate was frozen with liquid nitrogen.
The respective amounts of pAMPK and AMPK were determined in the same way as in the above Assay 1.

AdipoR1 [2] = biological target: T1, AdipoR1; experiment: Measurement of AMPK phosphorylation ability (Assay 1), HEK 293T cells, Western blotting; assay type: cell-based; parameters: HEK 293T cells (ATCC; CRL-3216, medium; host or cells: HEK 293T; conditions: 10 minutes
Procedure: The AMPK phosphorylation ability of the respective compounds according to the present invention was measured by using differentiated C2C12 cells or HEK 293T cells.
HEK 293T cells (ATCC; CRL-3216, medium; DMEM, Fetal Bovine Serum (FBS)) were cultured in a 12- or 24-well plate until they reached 100% confluency (37° C., 5% CO2).
After starvation, a test compound listed in Tables 10 and 11 (concentration: 25 μM, 50 μM) was added thereto, and after 10 minutes, the medium was discarded and the plate was frozen with liquid nitrogen.
To the 12- or 24-well cell plate which had been frozen was added 100 or 150 μL of Cell lysis buffer pH 7.4 (50 mM HEPES (pH 7.4), 2 mM sodium orthovanadate, 10 mM sodium pyrophosphate, 10 mM NaF, 2 mM EDTA, 2 mM EGTA, 0.1% (v/v) NP-40, 0.2 mM PMSF), and the cells were scraped off with a cell scraper, suspended and transferred into a micro centrifugal tube. And then, the cells were ultrasonically crushed (1 second×3 times) with a sonicator. Centrifugation was performed at 4° C. at 15,000 rpm for 15 minutes, and the supernatant was recovered into a new tube.
To 100 μL of the supernatant was added 25 μL of 5× sample buffer (280 mM Tris-HCl (pH 6.9), 40% glycerol, 10% (3-mercaptoethanol, 13% SDS, a small amount of bromophenol blue) and mixed together. The rest of the supernatant was used for protein quantification, and the protein concentrations were uniformed by adding 1× sample buffer depending on the concentration of each sample.
An electrophoresis chamber was filled with 1× SDS buffer (25 mM Tris-HCl, 250 mM glycine, 0.1% SDS), and the sample was applied to a well of polyacrylamide gel. Electrophoresis was performed until the bromophenol blue in the sample reached to the bottom of the gel.
A filter paper was soaked in 1× Transfer buffer sufficiently, above which the PVDF membrane and the gel after electrophoresis were stacked in this order, and thereabove a filter paper which had been soaked in 1× Transfer buffer sufficiently was further stacked, from which an air was removed and the resultant was set in semi-dry type transfer apparatus and transferred (7V, 35 minutes).
An unnecessary portion of the blotted membrane was cutoff, and the rest was immediately soaked in blocking buffer (5% skimmed milk in Rinse buffer), and shaken at room temperature at 40 rpm for 3 hours.
After blocking, the membrane was transferred into Rinse buffer, and washed at room temperature for 10 minutes while shaking. The membrane was soaked in a primary antibody solution (AMPK alpha Antibody (Cell signaling; #2532) 1/1,000 in Rinse buffer, Phospho-AMPK alpha (Thr172) (40H9) antibody (Cell signaling; #2535) 1/1,000 in Rinse buffer), and shaken at 4° C. at 40 rpm overnight.
The membrane was soaked in a secondary antibody solution (goat anti-rabbit IgG-HRP Antibody (Santa Cruz; sc-2030) 1/2,000 in Rinse buffer), and shaken at room temperature at 40 rpm for 1 hour.
After the membrane was washed for 45 minutes in the same way as after the primary antibody reaction, the membrane was soaked in a chemiluminescent reaction solution (ECL Western Blotting Detection Reagents, GE Healthcare) for about 1 minute. An excess of the reaction solution was removed, and then the membranes were arranged on a transparent film and sandwiched with it, with which an X-ray film was exposed in a darkroom (for about several seconds to 60 seconds) to develop the film.
The X-ray film was scanned to take the image, for which the band was measured by using the image analysis software “Image J” to determine the respective amounts of pAMPK and AMPK.

| SMILES | pAMPK/AMPK (ratio) siRNA, AdipoR1 siRNA (AdipoR1 [1]) | pAMPK/AMPK (ratio) siRNA, unrelated siRNA (AdipoR1 [1]) | pAMPK/AMPK (%) (AdipoR1 [2]; 25 μM) | pAMPK/AMPK (%) (AdipoR1 [2]; 50 μM) |
| --- | --- | --- | --- | --- |
| O=C(COc1ccc(C(F)(F)F)cc1)NC1CCN(C(=O)c2ccccc2F)CC1 [Compound 34] | 2.01 ratio | 2.32 ratio | 80.64% | 80.50% |
| CC(C)c1ccc(CN2CCN(C(=O)CCNC(=O)c3ccc([N+](=O)[O-])cc3)CC2)cc1 [Compound 64] | 3.57 ratio | 4.86 ratio | 80.29% | 83.01% |
| CCOc1ccc(OCC(=O)NC2CCN(Cc3ccc(Cl)c(Cl)c3)CC2)cc1 [Compound 38] | 2.43 ratio | 2.67 ratio | 112.70% | 87.54% |
| O=C(COc1ccc(F)cc1)NC1CCN(Cc2ccc(Cl)c(Cl)c2)CC1 [Compound 32] | 4.14 ratio | 3.38 ratio | 88.09% | 91.40% |
| Cc1ccc(OCC(=O)NC2CCN(Cc3ccc(Cl)c(Cl)c3)CC2)cc1 [Compound 30] | 2.35 ratio | 2.49 ratio | 122.70% | 89.75% |
| COc1ccc(OCC(=O)NC2CCN(Cc3ccc(Cl)c(Cl)c3)CC2)cc1 [Compound 37] | 2.69 ratio | 3.11 ratio | 83.83% | 80.12% |
| NC(=O)c1ccc(OCC(=O)NC2CCN(Cc3ccc(Cl)c(Cl)c3)CC2)cc1 [Compound 19] | 3.75 ratio | 3.88 ratio | 83.61% | 95.02% |
